Where a name gives a salt, the structure may show the parent alone. One block for each compound: values may come before it.
Experiments:
[1] = test system: myeloma cell lines RPM18226; assay: Apoptosis induction in myeloma cell line; format: cell-based; details: RPM18226 myeloma cells
[2] = test system: MCF7; assay: MTT cell viability assay, MCF7; format: cell-based; details: Homo sapiens, Breast, 72 hours exposure
Description: (§1) After 72 hours exposure, the viability of the cells was determined by the rate of conversion of the formazan salt measuring the optical density (OD) at 570 nm (MTT assay).

[3] = test system: MDA-231; assay: MTT cell viability assay, MDA-231; format: cell-based; details: Homo sapiens, MDA-MB-231, Breast, 72 hours exposure
Description: as §1

[4] = test system: HCT-116; assay: MTT cell viability assay, HCT-116; format: cell-based; details: Homo sapiens, Colon, 72 hours exposure
Description: as §1

[5] = test system: LNCap; assay: MTT cell viability assay, LNCap; format: cell-based; details: Homo sapiens, Prostate, 72 hours exposure
Description: as §1

[6] = test system: SU-DHL1; assay: MTT cell viability assay, SU-DHL1; format: cell-based; details: Homo sapiens, SU-DHL-1, Lymphoma, 72 hours exposure
Description: as §1

[7] = test system: SU-DHL9; assay: MTT cell viability assay, SU-DHL9; format: cell-based; details: Lymphoma, 72 hours exposure
Description: as §1

[8] = test system: 10C9; assay: MTT cell viability assay, 10C9; format: cell-based; details: Lymphoma, 72 hours exposure
Description: as §1

[9] = test system: RAJI; assay: MTT cell viability assay, RAJI; format: cell-based; details: Homo sapiens, Lymphoma, 72 hours exposure
Description: as §1

[10] = test system: RPMI8226; assay: MTT cell viability assay, RPMI8226; format: cell-based; details: Homo sapiens, RPMI-8226, Myeloma, 72 hours exposure
Description: as §1

[11] = test system: U266; assay: MTT cell viability assay, U266; format: cell-based; details: Homo sapiens, U-266, Myeloma, 72 hours exposure
Description: as §1

[12] = test system: Chronic lymphocytic leukemia cells (CLL); assay: Viability/apoptosis of CLL cells by dye exclusion and flow cytometric analysis; format: cell-based, human; details: 10 μM, 48 hours exposure, CLL cells of two patients
Description: (§2) After 48 hours exposure, the number of viable cells was determined by dye exclusion and flow cytometric analysis.

[13] = test system: control normal lymphocytes (PBL); assay: Viability/apoptosis of control normal lymphocytes by dye exclusion and flow cytometric analysis; format: cell-based, human; details: 10 μM, 48 hours exposure, PBL of a healthy volunteer
Description: as §2

[14] = test system: CLL cells; details: not feasible in vivo due to toxicity; cited from earlier work
[15] = test system: peripheral blood T lymphocytes; details: cited from earlier work
[16] = cited from earlier work
[17] = cited from earlier work; remark: listed apart in the source
[18] = in vivo; cited from earlier work

IC50 [1]: 10 to 20 µM
IC50 [2]: 10 µM
IC50 [4]: 6 µM
IC50 [5]: 12 µM
IC50 [6]: 8 µM
IC50 [7]: 7 µM
IC50 [9]: 12 µM
IC50 [10]: 8 µM
IC50 [11]: 11 µM
SMILES: O[C@H](c1cc(C(F)(F)F)nc2c(C(F)(F)F)cccc12)[C@@H]1CCCCN1 (racemic) [(+/−) Mefloquine, (R*, S*)-(±)-alpha-2-piperidinyl-2,8-bis (trifluoromethyl)-4-quinolinemethanol]
IC50 [3]: 20 µM
IC50 [8]: 9 µM

SMILES: O[C@H](c1cc(C(F)(F)F)nc2c(C(F)(F)F)cccc12)[C@@H]1CCCCN1 (relative stereo) [(+/−) Mefloquine, (R*, S*)-(±)-alpha-2-piperidinyl-2,8-bis (trifluoromethyl)-4-quinolinemethanol]
induction of apoptosis in CLL cells [12]: potent apoptosis
induction of apoptosis in normal lymphocytes [13]: not against normal lymphocytes

SMILES: CCN(CCO)CCCC(C)Nc1ccnc2cc(Cl)ccc12 (stereo not shown) [Hydroxychloroquine, hydroxychloroquine]
concentration active against CLL cells [14]: ≥ 30 µg/mL
induction of apoptosis in peripheral blood T lymphocytes [15]: induce apoptosis

SMILES: OC(c1cc(C(F)(F)F)nc2c(C(F)(F)F)cccc12)C1CCCCN1 (stereo not shown) [Mefloquine hydrochloride]
solubility in ethanol ([16]; ethanol): soluble in ethanol
solubility in water ([16]; water): slightly soluble in water

SMILES: O=C(O)c1cc(C(F)(F)F)nc2c(C(F)(F)F)cccc12 [Metabolite, 2,8-bis-trifluoromethyl-4-quinoline carboxylic acid]
Mean (SD) trough concentration, Plasma ([17]; healthy volunteers, 250 mg once weekly for 16 weeks, steady state at week 16, plasma): 9.80 (5.07) μmol · 1^−1
Mean (SD) trough concentration, Serum ([17]; healthy volunteers, 250 mg once weekly for 16 weeks, steady state at week 16, serum): 9.44 (5.00) μmol · 1^−1
Mean (SD) trough concentration, Whole Blood ([17]; healthy volunteers, 250 mg once weekly for 16 weeks, steady state at week 16, whole blood): 4.89 (2.58) μmol · 1^−1
accumulation in the plasma ([17]; plasma, text statement referring to Table 1): up to 10 μM
passage of the blood brain barrier / accumulation in the brain [18]: will not penetrate the brain barrier

Source: patent US20030216426A1 (REGENTS OF THE UNIVERSITY OF CALIFORNIA, priority 2002, published 2003)
